Measured values reported in ChEMBL document CHEMBL5338813 (J Med Chem, 2023).

Assays:
Cryptosporidium parvum = assay: Antiparasitic activity against Cryptosporidium parvum infected in human HCT-8 cells assessed as parasitic growth inhibition incubated for 48 hrs by fluorescence microscopic analysis; format: functional, organism-based; conditions: HCT-8, 48 h
HCT-8 = assay: Cytotoxicity against human HCT-8 cells assessed as reduction in cell number upto 50 uM incubated for 48 hrs by; format: toxicity, cell-based; conditions: hct-8, 48 h

SMILES | EC50 (Cryptosporidium parvum) [nM] | Activity (HCT-8)
O=C(Cc1ccc(C(F)(F)F)c(Cl)c1)N1CCN(c2ccc3nncn3n2)CC1 | 340 | Non-Toxic
O=C(Cc1cccc(Br)c1)N1CCN(c2ccc3nncn3n2)CC1 | 2200 | Non-Toxic
O=C(Cc1cc(F)cc(C(F)(F)F)c1)N1CCN(c2ccc3nncn3n2)CC1 | 1700 | Non-Toxic
O=C(Cc1cccc([N+](=O)[O-])c1)N1CCN(c2ccc3nncn3n2)CC1 | 18000 | Non-Toxic
O=C(Cc1ccc(-c2ccccc2)cc1)N1CCN(c2ccc3nncn3n2)CC1 | 56000 | Non-Toxic
Cc1ccc(CC(=O)N2CCN(c3ccc4nncn4n3)CC2)cc1Cl | 1100 | Non-Toxic
O=C(Cc1ccccc1Cl)N1CCN(c2ccc3nncn3n2)CC1 | > 25000 | Non-Toxic
O=C(Cc1cc(F)cc(Cl)c1)N1CCN(c2ccc3nncn3n2)CC1 | 880 | Non-Toxic
O=C(Cc1cccc(C(F)(F)F)c1)N1CCN(c2ccc3nncn3n2)CC1 | 1100 | Non-Toxic
O=C(Cc1ccc(Cl)cc1Cl)N1CCN(c2ccc3nncn3n2)CC1 | > 25000 | Non-Toxic
N#Cc1cccc(CC(=O)N2CCN(c3ccc4nncn4n3)CC2)c1 | 38000 | Non-Toxic
O=C(Cc1ccc(CO)cc1)N1CCN(c2ccc3nncn3n2)CC1 | > 25000 | Non-Toxic
Cc1cc(CC(=O)N2CCN(c3ccc4nncn4n3)CC2)cc(C(F)(F)F)c1F | 70 | Non-Toxic
O=C(Cc1ccccc1F)N1CCN(c2ccc3nncn3n2)CC1 | > 60000 | Non-Toxic
O=C(Cc1ccc(O)c(F)c1)N1CCN(c2ccc3nncn3n2)CC1 | 53000 | Non-Toxic
O=C(Cc1ccc([N+](=O)[O-])c(F)c1)N1CCN(c2ccc3nncn3n2)CC1 | 25000 | Non-Toxic

SMILES | EC50 (Cryptosporidium parvum) [nM] | Activity (HCT-8)
O=C(Cc1ccc(F)c(OC(F)(F)F)c1)N1CCN(c2ccc3nncn3n2)CC1 | 670 | Non-Toxic
Cc1ccc(CC(=O)N2CCN(c3ccc4nncn4n3)CC2)cc1F | 5300 | Non-Toxic
O=C(Cc1ccc(Br)cc1)N1CCN(c2ccc3nncn3n2)CC1 | 1100 | Non-Toxic
O=C(Cc1cc(Cl)cc(C(F)(F)F)c1)N1CCN(c2ccc3nncn3n2)CC1 | 410 | Non-Toxic
O=C(Cc1ccc(F)c(O)c1)N1CCN(c2ccc3nncn3n2)CC1 | > 50000 | Non-Toxic
Cc1ccccc1CC(=O)N1CCN(c2ccc3nncn3n2)CC1 | > 50000 | Non-Toxic
Cc1cccc(CC(=O)N2CCN(c3ccc4nncn4n3)CC2)c1 | 12000 | Non-Toxic
O=C(Cc1cc(C(F)(F)F)ccc1F)N1CCN(c2ccc3nncn3n2)CC1 | 15000 | Non-Toxic
O=C(Cc1ccc(Cl)c(Br)c1)N1CCN(c2ccc3nncn3n2)CC1 | 120 | Non-Toxic
O=C(Cc1ccc(F)c(Br)c1)N1CCN(c2ccc3nncn3n2)CC1 | 230 | Non-Toxic
O=C(Cc1ccc(Cl)c(F)c1)N1CCN(c2ccc3nncn3n2)CC1 | 410 | Non-Toxic
O=C(Cc1ccc(F)c(CO)c1)N1CCN(c2ccc3nncn3n2)CC1 | 17000 | Non-Toxic
Cc1cc(CC(=O)N2CCN(c3ccc4nncn4n3)CC2)ccc1F | 370 | Non-Toxic
O=C(Cc1cccc(C(F)(F)F)c1F)N1CCN(c2ccc3nncn3n2)CC1 | 62000 | Non-Toxic
O=C(Cc1ccc(F)c([N+](=O)[O-])c1)N1CCN(c2ccc3nncn3n2)CC1 | 620 | Non-Toxic
O=C(Cc1ccccc1Br)N1CCN(c2ccc3nncn3n2)CC1 | > 50000 | Non-Toxic
